This assay concerns the target T1, recombinant human GR (Homo sapiens, UniProt P04150).
T1 construct: purchased Panvera/Invitrogen P2812 (kit P2893)
T1 sequence (P04150 1-777): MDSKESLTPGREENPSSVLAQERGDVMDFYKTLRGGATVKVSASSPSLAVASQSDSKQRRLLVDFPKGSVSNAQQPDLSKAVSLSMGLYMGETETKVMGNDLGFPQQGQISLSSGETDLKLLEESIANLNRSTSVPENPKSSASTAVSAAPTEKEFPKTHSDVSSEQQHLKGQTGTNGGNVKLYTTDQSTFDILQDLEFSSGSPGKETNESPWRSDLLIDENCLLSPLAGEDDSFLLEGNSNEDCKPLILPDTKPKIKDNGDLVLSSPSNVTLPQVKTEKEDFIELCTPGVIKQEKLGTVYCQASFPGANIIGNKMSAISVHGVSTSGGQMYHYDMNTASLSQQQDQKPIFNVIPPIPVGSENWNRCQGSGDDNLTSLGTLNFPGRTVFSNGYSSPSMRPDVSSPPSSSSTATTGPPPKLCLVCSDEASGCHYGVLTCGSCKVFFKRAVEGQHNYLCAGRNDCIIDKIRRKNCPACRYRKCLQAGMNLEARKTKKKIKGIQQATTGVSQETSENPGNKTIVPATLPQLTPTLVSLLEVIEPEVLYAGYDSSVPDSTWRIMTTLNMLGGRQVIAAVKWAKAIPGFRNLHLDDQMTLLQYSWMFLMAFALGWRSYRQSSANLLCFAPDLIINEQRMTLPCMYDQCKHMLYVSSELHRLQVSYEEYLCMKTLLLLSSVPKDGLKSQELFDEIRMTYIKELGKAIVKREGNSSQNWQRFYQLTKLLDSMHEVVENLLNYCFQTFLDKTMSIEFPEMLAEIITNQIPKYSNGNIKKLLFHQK
Nature of the assay: Human Glucocorticoid Receptor (GR) Assay, fluorescence polarization. The conditions noted are these: GS Red tracer, 2 hours at room temperature, 100% control 10 μM Dexamethasone, read-out: Inhibition of GR binding, IC50. On the procedure:
Human Glucocorticoid Receptor (GR) Assay The assay is based on a commercial kit from Panvera/Invitrogen (Part number P2893). The assay technology is fluorescence polarization. The kit utilises recombinant human GR (Panvera, Part number P2812), a Fluoromone™ labelled tracer (GS Red, Panvera, Part number P2894) and a Stabilizing Peptide 10× (Panvera, Part number P2815). The GR and Stabilizing Peptide reagents are stored at −70° C. while the GS Red is stored at −20° C. Also included in the kit are 1M DTT (Panvera, Part number P2325, stored at −20° C.) and GR Screening buffer 10× (Panvera, Part number P2814, stored at −70° C. initially but once thawed stored at room temperature). Avoid repeated freeze/thaws for all reagents. The GR Screening buffer 10× comprises 100 mM potassium phosphate, 200 mM sodium molybdate, 1 mM EDTA and 20% DMSO. Test compounds (1 μL) and controls (1 μL) in 100% DMSO were added to black polystyrene 384-well plates (Greiner low volume black flat-bottom, part number 784076). 0% control was 100% DMSO and 100% control was 10 μM Dexamethasone. Background solution (8 μL; assay buffer 10×, Stabilizing Peptide, DTT and ice cold MQ water) was added to the background wells. GS Red solution (7 μL; assay buffer 10×, Stabilizing Peptide, DTT, GS Red and ice cold water) was added to all wells except background wells. GR solution (7 μL; assay buffer 10×, Stabilizing Peptide, DTT, GR and ice cold water) was added to all wells. The plate was sealed and incubated in a dark at room temperature for 2 hours. The plate was read in an Analyst plate reader (LJL Biosystems/Molecular Devices Corporation) or other similar plate reader capable of recording fluorescence polarization (excitation wavelength 530 nm, emission wavelength 590 nm and a dichroic mirror at 561 nm).
A general note: Fluorescence polarisation rises when a labelled molecule tumbles more slowly, as on binding a larger partner.

Turning to `COCC(=O)O[C@]1(C(=O)SCC#N)CC[C@H]2[C@@H]3C=C(C)C4=Cc5c(cnn5-c5ccc(F)nc5)C[C@]4(C)[C@H]3[C@@H](O)C[C@@]21C` [Example 1, (1R,3aS,3bS,10aR,10bS,11S,12aS)-1-{[(Cyanomethyl)sulfanyl]carbonyl}-7-(6-fluoropyridin-3-yl)-11-hydroxy-5,10a,12a-trimethyl-1,2,3,3a,3b,7,10,10a,10b,-11,12,12a-dodecahydrocyclopenta[5,6]naphtho[1,2-f]indazol-1-yl methoxyacetate], the half-maximal inhibitory concentration (IC50) (commonly the concentration at which inhibition is half-maximal) came out at 2.3 nM.

For `CCC(=O)O[C@]1(C(=O)SCC#N)CC[C@H]2[C@@H]3C=C(C)C4=Cc5c(cnn5-c5ccc(F)nc5)C[C@]4(C)[C@H]3[C@@H](O)C[C@@]21C` [Example 2, (1R,3aS,3bS,10aR,10bS,11S,12aS)-1-{[(Cyanomethyl)sulfanyl]carbonyl}-7-(6-fluoropyridin-3-yl)-11-hydroxy-5,10a,12a-trimethyl-1,2,3,3a,3b,7,10,10a,10b,-11,12,12a-dodecahydrocyclopenta[5,6]naphtho[1,2-f]indazol-1-yl propanoate], the IC50 was 2.1 nM.

For the compound `CCC(=O)O[C@]1(C(=O)SCF)CC[C@H]2[C@@H]3C=CC4=Cc5c(cnn5-c5ccc(F)nc5)C[C@]4(C)[C@H]3[C@@H](O)C[C@@]21C` [Example 3, (1R,3aS,3bS,10aR,10bS,11S,12aS)-1-{[(Fluoromethyl)sulfanyl]carbonyl}-7-(6-fluoropyridin-3-yl)-11-hydroxy-10a,12a-dimethyl-1,2,3,3a,3b,7,10,10a,10b,11,12,12a-dodecahydrocyclopenta[5,6]naphtho[1,2-f]indazol-1-ylpropanoate], the concentration for half-maximal inhibition (IC50) came out at 1.4 nM.

`COCC(=O)O[C@]1(C(=O)SCF)CC[C@H]2[C@@H]3C=CC4=Cc5c(cnn5-c5ccc(F)nc5)C[C@]4(C)[C@H]3[C@@H](O)C[C@@]21C` [Example 4, (1R,3aS,3bS,10aR,10bS,11S,12aS)-1-{[(Fluoromethyl)sulfanyl]carbonyl}-7-(6-fluoropyridin-3-yl)-11-hydroxy-10a,12a-dimethyl-1,2,3,3a,3b,7,10,10a,10b,11,12,12a-dodecahydrocyclopenta[5,6]naphtho[1,2-f]indazol-1-yl methoxyacetate]: the half-maximal inhibitory concentration (IC50) amounted to 0.8 nM.

Consider `C[C@]12Cc3cnn(-c4ccc(F)nc4)c3C=C1C=C[C@@H]1[C@@H]2[C@@H](O)C[C@@]2(C)[C@H]1CC[C@]2(OC(=O)c1cocn1)C(=O)SCF` [Example 5, (1R,3aS,3bS,10aR,10bS,11S,12aS)-1-{[(fluoromethyl)sulfanyl]carbonyl}-7-(6-fluoropyridin-3-yl)-11-hydroxy-10a,12a-dimethyl-1,2,3,3a,3b,7,10,10a,10b,11,12,12a-dodecahydrocyclopenta[5,6]naphtho [1,2-f]indazol-1-yl 1,3-oxazole-4-carboxylate], for which the IC50 amounted to 1.5 nM.

`C[C@]12Cc3cnn(-c4ccc(F)nc4)c3C=C1C=C[C@@H]1[C@@H]2[C@@H](O)C[C@@]2(C)[C@H]1CC[C@]2(OC(=O)c1cocn1)C(=O)SCC#N` [Example 6, (1R,3aS,3bS,10aR,10bS,11S,12aS)-1-{[cyanomethyl)sulfanyl]carbonyl}-7-(6-fluoropyridin-3-yl)-11-hydroxy-10a,12a-dimethyl-1,2,3,3a,3b,7,10,10a,10b,11,12,12a-dodecahydrocyclopenta[5,6]naphtho [1,2-f]indazol-1-yl 1,3-oxazole-4-carboxylate]: the half-inhibitory concentration (IC50) is 1.8 nM.

With `COCC(=O)O[C@]1(C(=O)SCC#N)CC[C@H]2[C@@H]3C=CC4=Cc5c(cnn5-c5ccc(F)nc5)C[C@]4(C)[C@H]3[C@@H](O)C[C@@]21C` [Example 7, (1R,3aS,3bS,10aR,10bS,11S,12aS)-1-{[(cyanomethyl)sulfanyl]carbonyl}-7-(6-fluoropyridin-3-yl)-11-hydroxy-10a,12a-dimethyl-1,2,3,3a,3b,7,10,10a,10b,11,12,12a-dodecahydrocyclopenta[5,6]naphtho [1,2-f]indazol-1-yl methoxyacetate], the IC50 came to 0.87 nM.

`C[C@]12Cc3cnn(-c4ccc(F)nc4)c3C=C1C=C[C@@H]1[C@@H]2[C@@H](O)C[C@@]2(C)[C@H]1CC[C@]2(OC(=O)C1CC1)C(=O)SCF` [Example 8, (1R,3aS,3bS,10aR,10bS,11S,12aS)-1-{[(fluoromethyl)sulfanyl]carbonyl}-7-(6-fluoropyridin-3-yl)-11-hydroxy-10a,12a-dimethyl-1,2,3,3a,3b,7,10,10a,10b,11,12,12a-dodecahydrocyclopenta[5,6]naphtho [1,2-f]indazol-1-yl cyclopropanecarboxylate]: the IC50 stood at 1.4 nM.

In the case of `C[C@]12Cc3cnn(-c4ccc(F)nc4)c3C=C1C=C[C@@H]1[C@@H]2[C@@H](O)C[C@@]2(C)[C@H]1CC[C@]2(OC(=O)C1CC1)C(=O)SCC#N` [Example 9, (1R,3aS,3bS,10aR,10bS,11S,12aS)-1-{[(cyanomethyl)sulfanyl]carbonyl}-7-(6-fluoropyridin-3-yl)-11-hydroxy-10a,12a-dimethyl-1,2,3,3a,3b,7,- 10,10a,10b,11,12,12a-dodecahydro-cyclopenta[5,6]naphtho[1,2-f]indazol-1-yl cyclopropanecarboxylate], the 50% inhibitory concentration (IC50) was determined as 1 nM.

As to `CCC(=O)O[C@]1(C(=O)SCC#N)CC[C@H]2[C@@H]3C=CC4=Cc5c(cnn5-c5ccc(F)nc5)C[C@]4(C)[C@H]3[C@@H](O)C[C@@]21C` [Example 10, (1R,3aS,3bS,10aR,10bS,11S,12aS)-1-{[(cyanomethyl)sulfanyl]carbonyl}-7-(6-fluoropyridin-3-yl)-11-hydroxy-10a,12a-dimethyl-1,2,3,3a,3b,7,10,10a,10b,11,12,12a-dodecahydrocyclopenta[5,6]naphtho [1,2-f]indazol-1-yl propanoate], the IC50 was determined as 0.83 nM.

For the compound `CCC(=O)O[C@]1(C(=O)SCF)CC[C@H]2[C@@H]3C=C(C)C4=Cc5c(cnn5-c5ccc(F)nc5)C[C@]4(C)[C@H]3[C@@H](O)C[C@@]21C` [Example 11, (1R,3aS,3bS,10aR,10bS,11S,12aS)-1-{[(fluoromethyl)sulfanyl]carbonyl}-7-(6-fluoropyridin-3-yl)-11-hydroxy-5,10a,12a-trimethyl-1,2,3,3a,3b,7,10,10a,10b,11,12,12a-dodecahydrocyclopenta[5,6]naphtho [1,2-f]indazol-1-yl propanoate], the IC50 amounted to 3.6 nM.

Regarding `CC1=C[C@@H]2[C@H]([C@@H](O)C[C@@]3(C)[C@H]2CC[C@]3(OC(=O)C2CC2)C(=O)SCF)[C@@]2(C)Cc3cnn(-c4ccc(F)nc4)c3C=C12` [Example 12, (1R,3aS,3bS,10aR,10bS,11S,12aS)-1-{[(fluoromethyl)sulfanyl]carbonyl}-7-(6-fluoropyridin-3-yl)-11-hydroxy-5,10a,12a-trimethyl-1,2,3,3a,3b,7,- 10,10a,10b,11,12,12a-dodecahydro-cyclopenta[5,6]naphtho[1,2-f]indazol-1-yl cyclopropanecarboxylate], the concentration for half-maximal inhibition (IC50) came out at 1.6 nM.

Take `CC1=C[C@@H]2[C@H]([C@@H](O)C[C@@]3(C)[C@H]2CC[C@]3(OC(=O)C2CC2)C(=O)SCC#N)[C@@]2(C)Cc3cnn(-c4ccc(F)nc4)c3C=C12` [Example 13, (1R,3aS,3bS,10aR,10bS,11S,12aS)-1-{[cyanomethyl)sulfanyl]carbonyl}-7-(6-fluoropyridin-3-yl)-11-hydroxy-5,10a,12a-trimethyl-1,2,3,3a,3b,7,10,10a,10b,11,12,12a-dodecahydrocyclopenta[5,6]naphtho [1,2-f]indazol-1-yl cyclopropanecarboxylate]: the IC50 came to 1.5 nM.
